Active and inactive are the calls of the source. The rule behind the calls is not given here.
What was measured:
[1] = target: T1, Mucosa-associated lymphoid tissue lymphoma translocation protein 1 (Homo sapiens) (UniProt Q9UDY8); assay: Inhibition of full length wild type human N-terminal GST-tagged MALT1 catalytic domain (325 to 760 residues) expressed in Escherichia coli BL21 (DE3) assessed as increase in fluorescence at 0.5 uL using Ac-LRSR-AMC as substrate preincubated for 20 mins followed by substrate addition measured after 60 to 120 mins by fluorescence plate reader assay
T1 sequence (whole entry): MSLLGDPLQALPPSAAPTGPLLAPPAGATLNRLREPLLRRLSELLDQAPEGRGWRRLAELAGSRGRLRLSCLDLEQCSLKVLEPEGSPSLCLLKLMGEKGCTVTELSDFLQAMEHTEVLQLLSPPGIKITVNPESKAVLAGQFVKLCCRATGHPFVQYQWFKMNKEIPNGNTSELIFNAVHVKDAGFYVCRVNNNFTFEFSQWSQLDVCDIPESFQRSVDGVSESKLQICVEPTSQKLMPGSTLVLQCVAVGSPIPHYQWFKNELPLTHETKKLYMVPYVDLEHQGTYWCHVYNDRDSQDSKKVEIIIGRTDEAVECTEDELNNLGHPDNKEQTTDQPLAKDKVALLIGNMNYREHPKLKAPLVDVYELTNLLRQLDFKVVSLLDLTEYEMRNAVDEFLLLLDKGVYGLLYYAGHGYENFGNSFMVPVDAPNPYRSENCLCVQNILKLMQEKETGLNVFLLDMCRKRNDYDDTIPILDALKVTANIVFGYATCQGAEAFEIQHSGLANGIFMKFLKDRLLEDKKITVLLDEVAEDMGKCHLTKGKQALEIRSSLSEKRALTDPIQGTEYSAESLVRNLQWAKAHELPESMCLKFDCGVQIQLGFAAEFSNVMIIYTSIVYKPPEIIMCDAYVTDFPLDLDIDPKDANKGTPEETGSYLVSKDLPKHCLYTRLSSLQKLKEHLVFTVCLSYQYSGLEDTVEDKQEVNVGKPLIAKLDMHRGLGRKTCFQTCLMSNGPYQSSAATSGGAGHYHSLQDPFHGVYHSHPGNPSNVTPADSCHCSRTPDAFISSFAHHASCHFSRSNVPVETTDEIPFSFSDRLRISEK

Cathepsin B [2] = target: T2, Cathepsin B (Homo sapiens, UniProt P07858); assay: Inhibition of recombinant human cathepsin B expressed in Escherichia coli BL21 (DE3) assessed as increase in fluorescence at 0.5 uL using zRR-AMC as substrate measured after 60 to 80 mins by fluorescence plate reader assay
[3] = target: T3, Mucosa-associated lymphoid tissue lymphoma translocation protein 1 (Homo sapiens, UniProt Q9UDY8); assay: Inhibition of […] wild type human N-terminal GST-tagged MALT1 catalytic domain (325 to 760 residues) expressed in Escherichia coli BL21 (DE3) using Ac-LVPipR-ACC as substrate measured after 2 hrs by microplate reader assay
T3 sequence (Q9UDY8 whole entry): T1 sequence (whole entry)

[4] = target: T1, Mucosa-associated lymphoid tissue lymphoma translocation protein 1 (Homo sapiens); assay: Inhibition of […] wild type human N-terminal GST-tagged MALT1 catalytic domain (325 to 760 residues) expressed in Escherichia coli BL21 (DE3) assessed as inactivation rate constant using Ac-LVPipR-ACC as substrate measured after 2 hrs by microplate reader assay
Cathepsin B [5] = target: T2, Cathepsin B; assay: Inhibition of recombinant human cathepsin B expressed in Escherichia coli BL21 (DE3) using zRR-AMC as substrate measured after 2 hrs by fluorescence plate reader assay
Cathepsin B [6] = target: T2, Cathepsin B; assay: Inhibition of recombinant human cathepsin B expressed in Escherichia coli BL21 (DE3) assessed as inactivation rate constant using zRR-AMC as substrate measured after 2 hrs by fluorescence plate reader assay
[7] = target: T1, Mucosa-associated lymphoid tissue lymphoma translocation protein 1 (Homo sapiens); assay: Covalent binding affinity to Streptag2-tagged MALT1 stably reconstituted in human knockout Jurkat cells assessed as PMA/ionomycin stimulated ABP labeling of MALT1 by measuring cleavage of CYLD substrate using CYLD as substrate at 3 uM pretreated for PMA/ionomycin with 30 mins followed by compound treatment and further incubated for 3 hrs by Western blot analysis; assay type: cell-based
Homo sapiens = species on record: Homo sapiens; assay: Covalent binding affinity to MALT1 C453/A mutant (unknown origin) assessed as PMA/ionomycin stimulated ABP labeling of MALT1 by measuring cleavage of CYLD substrate using CYLD as substrate at 3 uM pretreated with PMA/ionomycin for 30 mins followed by compound treatment and further incubated for 3 hrs by Western blot analysis
[8] = target: T1, Mucosa-associated lymphoid tissue lymphoma translocation protein 1 (Homo sapiens); assay: Covalent binding affinity to MALT1 in wild type human Jurkat cell lysate assessed as PMA/ionomycin stimulated ABP labeling by protein-compound adduct formation at 3 uM pretreated with PMA/ionomycin for 30 mins followed by compound treatment after 3 hrs by laser imaging analysis; assay type: subcellular
Cathepsin B [9] = target: T2, Cathepsin B; assay: Covalent binding affinity to cathepsin B in wild type human Jurkat cell lysate assessed as ABP labeling by protein-compound adduct formation at 3 uM after 3 hrs by laser imaging analysis; assay type: subcellular
[10] = target: T1, Mucosa-associated lymphoid tissue lymphoma translocation protein 1 (Homo sapiens); assay: Binding affinity to MALT1 in human Jurkat cells assessed as ABP labeling of protein at 3 uM pretreated with compound for 3 hrs followed by PMA/ionomycin stimulation for 30 mins by laser imaging analysis; assay type: cell-based
Cathepsin B [11] = target: T2, Cathepsin B; assay: Binding affinity to cathepsin B in human Jurkat cells assessed as ABP labeling of protein at 3 uM pretreated with compound for 3 hrs followed by PMA/ionomycin stimulation for 30 mins by laser imaging analysis; assay type: cell-based
[12] = target: T1, Mucosa-associated lymphoid tissue lymphoma translocation protein 1 (Homo sapiens); assay: Inhibition of MALT1 in human HBL1 assessed as assessed as reduction in Relb substrate cleavage at 3 to 30 uM after 5 hrs in presence of proteasome inhibitor by Western blot analysis
[13] = target: T1, Mucosa-associated lymphoid tissue lymphoma translocation protein 1 (Homo sapiens); assay: (§1) Competitive binding affinity to MALT1 in wild type human Jurkat cell lysate assessed as PMA/ionomycin stimulated ABP labeling by protein-compound adduct formation at 3 uM pretreated with 25 uM of MALT1 inhibitor s-mepazine for 2 hrs followed by PMA/ionomycin stimulation for 30 mins and subsequent compound addition measured after 3 hrs by Western blot analysis; assay type: subcellular
[14] = target: T1, Mucosa-associated lymphoid tissue lymphoma translocation protein 1 (Homo sapiens); assay: as §1, with “z-VRPR-FMK” for “s-mepazine”; assay type: subcellular
Cathepsin B [15] = target: T2, Cathepsin B; assay: as §1, with “to cathepsin B” for “to MALT1”, “inhibitor z-VRPR-FMK” for “inhibitor s-mepazine”; assay type: subcellular
Cathepsin B [16] = target: T2, Cathepsin B; assay: as §1, with “to cathepsin B” for “to MALT1”, “with 5” for “with 25”, “inhibitor CA-074ME” for “inhibitor s-mepazine”; assay type: subcellular
[17] = target: T1, Mucosa-associated lymphoid tissue lymphoma translocation protein 1 (Homo sapiens); assay: Inhibition of MALT1 in human HBL1 assessed as assessed as reduction in Relb substrate cleavage after 5 hrs in presence of proteasome inhibitor by Western blot analysis
Cathepsin B [18] = target: T2, Cathepsin B; assay: Inhibition of recombinant human cathepsin B expressed in Escherichia coli BL21 (DE3) assessed as increase in fluorescence at 0.5 uL using zRR-AMC as substrate measured after 60 to 80 mins by fluorescence plate reader assay relative to Z-VRPR-FMK

Row | inhibition [1] | inhibition (Cathepsin B [2]) | Ki [3] [nM] | Kinact [4] [×10⁻³ /s] | Ki (Cathepsin B [5]) [nM] | Kinact (Cathepsin B [6]) [×10⁻³ /s] | Activity [7] | Activity (Homo sapiens) | Activity [8] | Activity (Cathepsin B [9]) | Activity [10] | Activity (Cathepsin B [11]) | inhibition [12] | Activity [13] | Activity [14] | Activity (Cathepsin B [15]) | Activity (Cathepsin B [16]) | inhibition [17] | fold change (FC) (Cathepsin B [18]) | Compound
1 | Active | Active | 340 | 2 | 630 | 9.6 | Active | inactive | Active | Active | Active | Active | inactive | – | – | – | – | – | – | CC1=CC(C)=[N+]2C1=Cc1ccc(CCC(=O)N[C@@H](CC(C)C)C(=O)N[C@@H](CCCNC(=N)N)C(=O)N[C@@H](CO)C(=O)N[C@@H](CCCNC(=N)N)C(=O)COC(=O)c3c(C)cccc3C)n1[B-]2(F)F
2 | Active | Active | – | – | – | – | – | – | – | – | – | – | – | – | – | – | – | – | – | CC(C)[C@H](NC(=O)OCc1ccccc1)C(=O)N[C@@H](CCCNC(=N)N)C(=O)N1CCC[C@H]1C(=O)N[C@@H](CCCNC(=N)N)C(=O)CF
3 | Active | Active | 210 | 1.1 | 210 | 4.1 | Active | inactive | Active | Active | Active | Active | – | inactive | inactive | inactive | inactive | Dose-dependent effect | – | CC1=CC(C)=[N+]2C1=C(CCCc1cn(CCCCCC(=O)N[C@@H](CC(C)C)C(=O)N[C@H](C(=O)N[C@@H](CO)C(=O)N[C@@H](CCCNC(=N)N)C(=O)COC(=O)c3c(C)cccc3C)C(C)C)nn1)c1c(C)cc(C)n1[B-]2(F)F
4 | Active | Active | 170 | 1.7 | > 10000 | – | Active | inactive | Active | inactive | inactive | inactive | – | – | – | – | – | Dose-dependent effect | 50 | CC1=CC(C)=[N+]2C1=C(CCCc1cn(CCCCCC(=O)N[C@@H](CC(C)C)C(=O)N[C@H](C(=O)N3CCCC[C@H]3C(=O)N[C@@H](CCCNC(=N)N)C(=O)COC(=O)c3c(C)cccc3C)C(C)C)nn1)c1c(C)cc(C)n1[B-]2(F)F

— ChEMBL document CHEMBL4354872, “Use of Non-Natural Amino Acids for the Design and Synthesis of a Selective, Cell-Permeable MALT1 Activity-Based Probe” (J Med Chem, 2020)
